Here are results for five compounds from patent publication US9617256B2 (priority 2007, dated 2017).

SMILES strings stand for the structures. Values after ≈ are worked out from the molar mass of the structure shown. Read-outs that look alike come from different tables or passages of the source.

Data set [1] deals with ATCC43816. Briefly: Neutropenic thigh efficacy model. It counts as in vivo, mice. The following applies: for Ratio of thigh static doses: neutropenic thigh model, compound with A = —C(CH3)2NH2 versus paired compound with A = —C(CH3)2OH, ratio >1 means the —C(CH3)2NH2 compound had a lower static dose; for Ratio of thigh static dose normalized to MICs: ratio of neutropenic thigh static doses normalized to the MIC ratio on ATCC43816, —C(CH3)2NH2 compound versus paired —C(CH3)2OH compound. How it is done:
Mice were rendered neutropenic prior to infection with 2 doses of cyclophosphamide, and then infected intramuscularly in the thigh with 10^5-10^6 CFU of bacteria. See Gudmundsson S., Erlensdottir H., “Murine Thigh Infection Model” Handbook of Animal Models of Infection, M. A. Sande and O. Zak, Eds.; London: Academic Press, 1999, pp 137-144. Antibiotics or vehicle alone as a negative control were administered twice at 2 hrs and 14 hrs post-infection. At 24 hrs post-infection, thighs were harvested, homogenized, and plated to measure the number of CFUs surviving per thigh. Thighs from a subset of animals were also harvested 2 hrs post-infection to record the CFUs present just prior to the first antibiotic treatment (pre-treatment). The static dose, defined as the dose required to result in a CFU load at 24 hours that is identical to that measured at 0 hours post infection, was calculated by standard methods in Prizm from a dose response curve.
(§1) As shown in the following Table 3, three pairs of compounds were tested in the neutropenic thigh efficacy model. For each pair of compounds, the compounds were identical in structure except for the A moiety. More specifically, A is —C(CH3)2NH2 in one compound and A is —C(CH3)2OH in the other compound. […] In addition, the ratios of the MICs of each pair of compounds on the infecting strain (ATCC43816) was calculated.

In data set [2] the test system is APAE006 in the presence of 8 micrograms per milliliter of polymyxin B nonapeptide. It counts as cell-based, P. aeruginosa. As to conditions: APAE006 with 8 micrograms per milliliter polymyxin B nonapeptide. The method in brief:
(§2)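 For the efflux-deficient P. aeruginosa APAE006, one set of MICs includes polymyxin B nonapeptide at 8 micrograms per milliliter.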

In data set [3] the test system is AECO063 (ATCC25922 bearing an acrAB mutation). The data set is described as follows: microbe, parasite or virus in culture. As to conditions: Escherichia coli, ATCC25922, read-out: MIC AECO063. The format is cell-based, E. coli. In outline:
(§3)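 Growth inhibition was scored by CLSI broth microdilution using cation-adjusted Mueller-Hinton broth and a final inoculum between 3×10^5 and 7×10^5 CFU/mL, incubated 18-24 hours at 35° C.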

The subject of data set [4] is APAE001 (ATCC27853). The data set is described as follows: MIC broth microdilution, APAE001. It counts as cell-based, P. aeruginosa. As to conditions: Pseudomonas aeruginosa, ATCC27853, read-out: MIC APAE001, APAE001 (ATCC27853). The method in brief: as §3
Data set [5] has as its system AABA1060 (clinical isolate of Acinetobacter baumannii). Briefly: MIC broth microdilution, AABA1060. It counts as cell-based. As to conditions: Acinetobacter baumannii, read-out: MIC AABA1060. The method in brief: as §3
In general terms: Dilution methods test growth across graded concentrations, often in twofold steps.

Data set [6] has as its system ASAU001 (laboratory strain of S. aureus, ATCC29213). Briefly: MIC broth microdilution, ASAU001. The format is cell-based. As to conditions: Staphylococcus aureus, ATCC29213, read-out: MIC ASAU001. The method in brief:
as §3

The subject of data set [7] is AECO001 (ATCC25922). The data set is described as follows: MIC broth microdilution, AECO001. It counts as cell-based, E. coli. As to conditions: for MIC: Escherichia coli; for Ratio of MICs on AECO001 [Cpd (A = —CHCH3NH2)/Cpd (A = —C(CH3)2NH2)]: MIC of paired compound with A = —CHCH3NH2 divided by MIC of compound with A = —C(CH3)2NH2, n=2 data, pairs identical except for the A moiety. In outline: as §3

Data set [8] deals with ATCC43816. The data set is described as follows: MIC broth microdilution, infecting strain ATCC43816. It counts as cell-based. As to conditions: ratio >1 means the —C(CH3)2NH2 compound had a lower MIC than the paired —C(CH3)2OH compound. How it is done:
Minimum Inhibitory Concentrations (MICs) were determined by the broth microdilution method in accordance with the Clinical and Laboratory Standards Institute (CLSI) guidelines. In brief, organism suspensions were adjusted to a 0.5 McFarland standard to yield a final inoculum between 3×10^5 and 7×10^5 colony-forming units (CFU)/mL. Drug dilutions and inocula were made in sterile, cation adjusted Mueller-Hinton Broth (Beckton Dickinson). An inoculum volume of 100 μL was added to wells containing 100 μL of broth with 2-fold serial dilutions of drug. All inoculated microdilution trays were incubated in ambient air at 35° C. for 18-24 hours. Following incubation, the lowest concentration of the drug that prevented visible growth (OD600 nm<0.05) was recorded as the MIC. Performance of the assay was monitored by the use of laboratory quality-control strains and levofloxacin, a compound with a defined MIC spectrum, in accordance with CLSI guidelines. Typically, compounds of the present invention have MIC values of […].
as §1

Data set [9] relates to APAE006 (strain of P. aeruginosa in which all efflux pumps are inactivated). Briefly: microbe, parasite or virus in culture. It counts as cell-based. As to conditions: Pseudomonas aeruginosa, read-out: MIC APAE006, APAE006, all efflux pumps inactivated. The method in brief: as §2
The mark [10] stands for this setting: ATCC25922, read-out: MIC AECO001.
[11] abbreviates: ATCC25922, read-out: MIC AECO001 HSA AGP.

Turning to `CC(C)(N)[C@H](NC(=O)c1ccc(C#Cc2ccc(CN3CCCOCC3)cc2)cc1)C(=O)NO` [Example 122-5], in data set [1], the “Ratio of thigh static doses” value is given as greater than 2x. Besides, the “Ratio of thigh static dose normalized to MICs” value in [1] is greater than 4x. For the same compound, the “MIC APAE006 + PMBN” value in [2] is on record as “A (MIC's of 2.0 μg/mL or less = A)”. Further, the MIC is less than 2 µg/mL in data set [3]; less than 2 µg/mL in data set [4]; less than 2 µg/mL in [5]; 16 to 64 µg/mL (≈ 34.4 to 138 µM) in data set [6]; less than 2 µg/mL in data set [7] (setting [10]); less than 2 µg/mL in data set [7] (setting [11]). The MIC in data set [9] is less than 2 µg/mL. Moreover, in data set [7], the “Ratio of MICs on AECO001 [Cpd (A = —CHCH3NH2)/Cpd (A = —C(CH3)2NH2)]” value (“Ratio of MICs on AECO001” below) amounted to 2.4. Moreover, the “Ratio of MICs on ATCC43816 [Cpd (A = —CH(CH3)2OH/Cpd (A = —C(CH3)2NH2)])” value in [8] was 0.5.

A word on the melting point: it is the temperature, or range, at which the solid turns liquid. As to `O=C(NO)[C@H]1[C@H](O)CCN1C(=O)c1ccc(OC(F)(F)F)cc1`, the melting point fell in the range of 64 to 65 °C.

`CC(C)(N)[C@H](NC(=O)c1ccc(C#CC#CC2CC2)cc1)C(=O)NO` [Example 91-12]: the “Ratio of thigh static doses” value in data set [1] is greater than 3x. Also, the “Ratio of thigh static dose normalized to MICs” value in [1] is greater than 3x. Besides, the “MIC APAE006 + PMBN” value in data set [2] is listed as “A (MIC's of 2.0 μg/mL or less = A)”. Further, the MIC is less than 2 µg/mL in [3]; less than 2 µg/mL in data set [4]; less than 2 µg/mL in [5]; 2 to 16 µg/mL (≈ 5.89 to 47.1 µM) in data set [6]; less than 2 µg/mL in data set [7] (setting [10]); less than 2 µg/mL in data set [7] (setting [11]). For the same compound, the MIC in data set [9] was less than 2 µg/mL. The “Ratio of MICs on AECO001” value in data set [7] came out at 5.6. Besides, the “Ratio of MICs on ATCC43816 [Cpd (A = —CH(CH3)2OH/Cpd (A = —C(CH3)2NH2)])” value in data set [8] is on record as 1.0.

In turn, `C[C@@H](O)[C@H](NC(=O)c1ccc(F)c(Br)c1)C(=O)NO` had a melting point of 152 to 153 °C.

On to `CC(C)(N)[C@H](NC(=O)c1ccc(C#CC#Cc2cccs2)cc1)C(=O)NO` [Example 88-13], for which, in data set [1], the “Ratio of thigh static doses” value is greater than 7x. Moreover, the “Ratio of thigh static dose normalized to MICs” value in [1] is given as greater than 4.4x. For the same compound, the “MIC APAE006 + PMBN” value in data set [2] was “A (MIC's of 2.0 μg/mL or less = A)”. For the same compound, the MIC in data set [3] was less than 2 µg/mL; in data set [4] it was less than 2 µg/mL; in data set [5] it was less than 2 µg/mL; in data set [6], 2 to 16 µg/mL (≈ 5.24 to 41.9 µM); in data set [7] (setting [10]) it was less than 2 µg/mL; in [7] (setting [11]), less than 2 µg/mL. Besides, in [9], the MIC is less than 2 µg/mL. Besides, the “Ratio of MICs on AECO001” value in data set [7] amounted to 4.1. Besides, in [8], the “Ratio of MICs on ATCC43816 [Cpd (A = —CH(CH3)2OH/Cpd (A = —C(CH3)2NH2)])” value was determined as 1.6.
